Broadly, the Kd is the equilibrium constant for the complex coming apart.

Results on 4 molecules are retold here after patent publication US5340925A, “Normal human growth regulatory receptor for TGF-β” (Oncogen, priority 1992, dated 1994).

The subject of assay [1] is HEPM cells. In words: Co-stimulation with EGF assay (radionuclide incorporation into DNA). The assay is classed as cell-based, human. The protocol:
Quiescent HEPM cells were stimulated to proliferate by the addition of fetal bovine serum (15 μ) and test samples of TGF-β2 (50 μl) and/or EGF (50 μl), resulting in a total assay volume of 165 μl. The amount of cell growth was measured by the amount of radionuclide incorporated into the DNA of actively growing cells.
The response of HEPM cells to TGF-β treatment in the presence of EGF was determined by radiolabeling the DNA of dividing cells as described in Materials and Methods. A suboptimal dose of TGF-β2 was analyzed for growth stimulatory activity in the presence of EGF. […] HEPM cells treated with both EGF and TGF-β2 at the same doses gave a 511% stimulation, a potentiated response of 340% over that expected from the sum of the two individual responses.

Assay [2] concerns HEPM cells. In words: Growth stimulation assay: incorporation of 5-[125I]iodo-2'-deoxyuridine into DNA of quiescent HEPM cells. The assay is classed as cell-based, human. Particulars: 66 h + 6 h radionuclide label. The procedure: FIGS. 1(A) and 1(B) Bioactivity of TGF-β on HEPM cells: incorporation of radionuclide into DNA. Results are presented as percent stimulation vs the picomolar (pM) concentration of TGF-β. Percent stimulation was calculated as follows: treated (cpm)-untreated (cpm)/untreated (cpm) x 100. Panel A: TGF-β1, treatment. Panel B: TGF-β2 treatment.
HEPM cells (5,000 cells/50 μl ) were subcultured in 96-well tissue culture plates (Falcon 30072) in growth medium comprising minimal essential medium (Gibco, Grand Island, N.Y.) supplemented with 10% heat-inactivated fetal bovine serum, 600 μg/ml L-glutamine, 500 μg/ml penicillin and 500 μg/ml streptomycin for a 24-hour period at 37° C. in a humidified 5% CO2 /95% air atosphere. A nondividing, quiescent state of growth was achieved by subsequent incubation for 48 hours in growth medium supplemented with 0.5% fetal bovine serum. Quiescent cells were then stimulated to proliferate by the addition of fetal bovine serum (10 μl ) and test samples of TGF-β1, or TGF-β2 (50 μl). The cells were incubated an additional 66 hours at 37° C. […] The amount of cell growth was measured by the amount of radionuclide incorporated into the DNA of actively growing cells.

Assay [3] has as its system HEPM cell-surface receptors for TGF-β. In words: Radioreceptor assay: [125I]-iodo-TGF-β1 in competition with unlabeled TGF-β1, Scatchard analysis. As to conditions: comparison of growth stimulation and receptor binding, FIG. 6. The assay is classed as binding, human. The procedure:
(§1) HEPM cells were grown to confluence (1×10^5 cells/well) in 24-well Costar tissue culture plates. Prior to the binding assay, cells were pre-incubated in serum-free growth medium at 37° C. for 4 hours to allow for the dissociation of TGF-β from occupied cells surface receptors. The resulting monolayers were washed 2 times in binding buffer (Dulbecco's MEM+0.1% BSA+25 mM HEPES). 250 μl of binding buffer containing 0.5 μg/ml [^125 I]-iodoTGF-β1, (specific activity of 100 μCi/μg) together with increasing amounts of unlabeled TGF-β1 were added to duplicate wells. Steady state binding was carried out at 4° C. for 3 hours. After incubation cells were washed 3 times with cold binding buffer and solubilized in 200 μl of Triton solution (20 mM HEPES, 1% Triton X-100, 10% glycerol, 0.01% BSA, pH 7.4). Radioactivity was determined using a gamma spectrometer. Non-specific binding was determined in the presence of a 1,000-fold molar excess unlabeled TGF-β1.
(§2) The radioreceptor assay described in Materials and Methods was used to characterize the affinity and number of cell-surface receptors for TGF-β on HEPM cells. Specific binding of [^125 I]-iodo-TGF-βin these assays was 20% of the total radioligand present. […] Half-maximal displacement of radioligand occurred at 100 pM (2.6 ng/ml) unlabeled TGF-β1. Competitive binding data were plotted according to the method of Scatchard (Scatchard, et al., 1947, Ann. NY Acad Sci 51:660-672) and the results are presented in FIG. 5. A distinctly curvilinear isotherm was obtained indicating the presence of at least two classes of binding sites on HEPM cells. […] Quantitative analysis determined that HEPM cells contain a total of 287,000 TGF-β receptors per cell (55,400 high affinity and 231,600 low affinity sites).

Assay [4] has as its target T1, HEPM cell-surface receptors for TGF-β (Homo sapiens, UniProt Q03167).
T1 construct: endogenous in cells; host or cells: HEPM (human embryonic palatal mesenchyme) cells, intact monolayers
T1 sequence (Q03167 21-851): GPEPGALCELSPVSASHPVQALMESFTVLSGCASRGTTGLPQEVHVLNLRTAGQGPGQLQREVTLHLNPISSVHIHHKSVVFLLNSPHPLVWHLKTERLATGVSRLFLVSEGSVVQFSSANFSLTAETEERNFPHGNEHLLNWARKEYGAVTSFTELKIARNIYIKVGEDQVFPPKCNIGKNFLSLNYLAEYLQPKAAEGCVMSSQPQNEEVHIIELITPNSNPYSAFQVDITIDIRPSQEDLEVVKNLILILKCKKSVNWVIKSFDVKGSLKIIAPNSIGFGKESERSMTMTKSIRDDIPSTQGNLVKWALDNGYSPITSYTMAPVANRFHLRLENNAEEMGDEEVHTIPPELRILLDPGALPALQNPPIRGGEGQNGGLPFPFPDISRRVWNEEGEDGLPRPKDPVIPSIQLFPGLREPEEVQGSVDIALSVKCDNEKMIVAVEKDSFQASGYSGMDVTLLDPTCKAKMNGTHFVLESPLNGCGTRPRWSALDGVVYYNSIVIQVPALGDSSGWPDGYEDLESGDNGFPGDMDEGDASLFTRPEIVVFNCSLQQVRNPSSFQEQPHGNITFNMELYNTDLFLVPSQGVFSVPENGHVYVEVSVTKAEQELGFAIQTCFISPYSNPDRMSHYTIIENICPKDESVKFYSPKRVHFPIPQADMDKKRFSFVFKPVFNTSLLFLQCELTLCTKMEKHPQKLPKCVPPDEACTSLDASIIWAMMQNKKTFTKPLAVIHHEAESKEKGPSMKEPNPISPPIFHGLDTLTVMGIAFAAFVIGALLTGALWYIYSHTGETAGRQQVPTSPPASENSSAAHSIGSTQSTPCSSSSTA
Described as above. The assay is classed as binding. Particulars: untreated HEPM cells, Scatchard two-site model. The protocol: as §1, §2

The next assay has as its target T2, TGF-β (Homo sapiens, UniProt P01137).
T2 construct: endogenous in cells; host or cells: HEPM cells
In words: Affinity labeling of purified soluble receptor with [125I]-iodo-TGF-β, DSS cross-linking, SDS-PAGE. The assay is classed as binding. Particulars: [125I]-iodo-TGF-β with or without 1,000 ng/ml unlabeled TGF-β. The protocol: FIG. 10 Ability of purified TGF-β receptor to bind TGF-β. Affinity purified receptor preparations were crosslinked to bound [^125 I]-iodo-TGF-β with DSS and analyzed on SDS-PAGE. Lanes marked (-) contained only [^125 I]-iodo-TGF-β; lanes marked (+) contained [^125 I]-iodo-TGF-β in the presence of 1,000 ng/ml unlabeled TGF-β. The 240 Kd band is specifically labeled with radioligand and has the same mobility on SDS-PAGE as the receptor-TGF-β complex from cell surface membranes (see FIG. 7).
Solubilized receptor samples (50 μl) were diluted with three volumes of binding buffer containing 0.5% v/v Triton X-100 and 50 ng/ml [^125 I]-iodo-TGF-β. The samples were incubated at 4° C. for 3 hours in the presence or absence of 1,000 ng/ml unlabeled TGF-β. Four microliters (4 μl) of 10 mM DSS in DMSO were then added. After 15 minutes the unreacted DSS was quenched by adding 20 μl of 100 mM Tris/HCl pH 7.0.
Affinity-labeled samples were incubated at 4° C. for 2 hours with 15 μl of packed WGA-sepharose beads (wheat germ aglutinin-sepharose, Sigma) with end-over-end mixing. The beads were sedimented by centrifugation at 12,000 xg for 1 minute and washed three times with a buffer solution containing 0.5% v/v Triton X-100, 10 mM Tris/HCl, mM EDTA. The washed, packed beads were heated for 5 minutes at 95° C. in the presence of 20 μl of electrophoresis sample buffer containing 5% 2-mercaptoethanol. […]

Where two headings read alike, the source gives them in different places.

T2 sequence (P01137 279-390): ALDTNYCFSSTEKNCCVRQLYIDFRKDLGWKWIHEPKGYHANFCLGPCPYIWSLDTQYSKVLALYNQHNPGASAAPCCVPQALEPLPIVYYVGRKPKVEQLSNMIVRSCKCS

As for “EGF: epidermal growth factor [reference compound]”, the percent stimulation in the assay with HEPM cells [1] (13 ng/ml EGF alone) amounted to 21%.
Turning to “TGF-β2: polypeptide of molecular weight 26,000 composed of two identical 13,000 dalton subunits which are disulfide linked”, the percent stimulation with HEPM cells [1] (0.3 ng/ml TGF-β2 alone (suboptimal dose)) was 150%. For the same molecule, the “ED50 in stimulating the proliferation of HEPM cells (half-maximal growth stimulation)” value in the assay on HEPM cells [2] came out at 0.0023 nM.
“TGF-β: Transforming growth factor-Beta, type not named at the place; the underlying radioreceptor and FIG. 6 data were obtained with TGF-β1”: the “concentration to occupy all TGF-β receptor sites relative to concentration for maximal growth stimulatory response” value in assay [3] was “about 20 times”. Besides, the Kd in assay [4] (read-out: kd, high-affinity (low capacity) site) was 0.058 nM; in assay [4] (read-out: kd, low-affinity (high capacity) site), 0.898 nM.

B1: affinity purified receptor: type III TGF-β receptor affinity purified from HEPM cells, about 200-206 kd, N-terminus Lys-Tyr-Tyr-Asp-Lys-Asp-Tyr (protein, UniProt Q03167 21-851, looked up)
Transforming growth factor …: T1 sequence (Q03167 21-851)
For the molecule B1, the “ability of purified receptor to bind TGF-β” value with TGF-β is recorded as “specifically bind TGF-β”.
